According to PMC7799360, “Reprogramming immunosuppressive myeloid cells facilitates immunotherapy for colorectal cancer” (EMBO Molecular Medicine, 2020):
pIC50: −log10 of the molar value.

Assays:
[1] = molecular target: T1, human EP2 (Homo sapiens, UniProt P43116); experiment: PGE2-induced calcium flux assay in CHO-Gα16 cells; assay type: cell-based
T1 construct: host or cells: CHO-Gα16

[2] = molecular target: T2, ADRA1B (Homo sapiens, UniProt P35368); experiment: GPCR calcium flux assay; assay type: cell-based
T2 construct: Pharmaron (Beijing, China) performed the assay
T2 sequence (P35368 whole entry, species assumed): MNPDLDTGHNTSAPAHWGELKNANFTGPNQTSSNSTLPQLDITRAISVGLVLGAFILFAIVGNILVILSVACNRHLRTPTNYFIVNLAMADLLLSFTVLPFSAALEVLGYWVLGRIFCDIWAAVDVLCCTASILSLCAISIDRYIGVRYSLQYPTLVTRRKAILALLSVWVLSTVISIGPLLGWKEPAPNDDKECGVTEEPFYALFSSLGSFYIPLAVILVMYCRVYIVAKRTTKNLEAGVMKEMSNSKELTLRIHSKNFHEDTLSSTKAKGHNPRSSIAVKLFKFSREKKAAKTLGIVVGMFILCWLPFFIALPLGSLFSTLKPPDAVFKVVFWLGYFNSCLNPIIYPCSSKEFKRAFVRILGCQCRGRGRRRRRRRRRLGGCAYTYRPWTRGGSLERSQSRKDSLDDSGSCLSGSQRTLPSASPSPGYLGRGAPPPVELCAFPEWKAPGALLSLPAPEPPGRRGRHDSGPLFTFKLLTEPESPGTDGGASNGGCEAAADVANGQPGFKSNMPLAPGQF

[3] = molecular target: T3, ADRA2A (Homo sapiens, UniProt P08913); experiment: GPCR calcium flux assay; assay type: cell-based
T3 construct: Pharmaron (Beijing, China) performed the assay
T3 sequence (P08913 whole entry, species assumed): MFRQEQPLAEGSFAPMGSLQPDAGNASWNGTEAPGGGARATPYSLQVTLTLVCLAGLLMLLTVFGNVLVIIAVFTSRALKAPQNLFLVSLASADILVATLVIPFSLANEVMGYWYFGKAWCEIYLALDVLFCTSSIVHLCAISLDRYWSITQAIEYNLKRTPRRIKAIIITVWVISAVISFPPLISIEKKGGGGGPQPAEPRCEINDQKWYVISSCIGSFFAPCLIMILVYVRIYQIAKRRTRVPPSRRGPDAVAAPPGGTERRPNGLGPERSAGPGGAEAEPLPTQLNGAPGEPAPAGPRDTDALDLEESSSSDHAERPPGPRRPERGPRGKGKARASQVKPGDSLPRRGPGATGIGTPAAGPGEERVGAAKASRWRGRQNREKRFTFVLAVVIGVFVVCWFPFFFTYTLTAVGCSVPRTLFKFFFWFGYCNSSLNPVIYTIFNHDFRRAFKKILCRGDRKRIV

[4] = molecular target: T4, HTR2B (Homo sapiens, UniProt P41595); experiment: GPCR calcium flux assay; assay type: cell-based
T4 construct: Pharmaron (Beijing, China), contract laboratory
T4 sequence (P41595 whole entry, species assumed): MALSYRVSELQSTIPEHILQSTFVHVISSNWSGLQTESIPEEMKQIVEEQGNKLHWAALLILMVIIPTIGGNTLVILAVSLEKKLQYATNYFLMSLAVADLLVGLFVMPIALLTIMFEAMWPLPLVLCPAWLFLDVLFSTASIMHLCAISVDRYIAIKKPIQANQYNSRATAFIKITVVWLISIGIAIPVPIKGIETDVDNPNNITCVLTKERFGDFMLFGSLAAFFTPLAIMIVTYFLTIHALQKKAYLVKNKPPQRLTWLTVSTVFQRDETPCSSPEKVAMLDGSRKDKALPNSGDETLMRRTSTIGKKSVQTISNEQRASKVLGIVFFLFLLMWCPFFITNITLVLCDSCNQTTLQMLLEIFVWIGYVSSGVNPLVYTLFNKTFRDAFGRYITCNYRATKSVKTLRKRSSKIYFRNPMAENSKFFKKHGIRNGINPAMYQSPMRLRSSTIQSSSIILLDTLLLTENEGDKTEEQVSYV

[5] = molecular target: T5, OPRK1 (Homo sapiens, UniProt P41145); experiment: GPCR calcium flux assay; assay type: cell-based
T5 construct: Pharmaron (Beijing, China), contract laboratory
T5 sequence (P41145 whole entry, species assumed): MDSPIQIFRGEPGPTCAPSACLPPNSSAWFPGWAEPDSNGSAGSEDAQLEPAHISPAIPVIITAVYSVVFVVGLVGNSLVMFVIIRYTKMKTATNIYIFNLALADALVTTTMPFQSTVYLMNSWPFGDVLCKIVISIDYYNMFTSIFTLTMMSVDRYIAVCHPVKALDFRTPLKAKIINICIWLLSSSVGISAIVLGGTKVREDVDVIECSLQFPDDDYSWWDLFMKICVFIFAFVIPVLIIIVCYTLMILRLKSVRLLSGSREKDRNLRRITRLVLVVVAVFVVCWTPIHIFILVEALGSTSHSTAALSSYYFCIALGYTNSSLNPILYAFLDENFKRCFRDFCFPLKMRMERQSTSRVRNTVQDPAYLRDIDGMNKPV

[6] = system: CT26 tumors; experiment: CT26 subcutaneous syngeneic tumor model in BALB/c mice; assay type: in vivo, mouse
Experimental: (§1) Syngeneic mouse tumor‐bearing models were established as described previously (Tan et al., 2018). Tumor cells (5 × 10^5 ‐ 2 × 10^6) were suspended in 100 μl PBS and implanted subcutaneously into the flank of mice. Mice were randomized into different treatment groups when tumor volumes reached 100‐200 mm^3. V = L×W^2 × 0.52, where L is the longest diameter, and W is the shortest diameter. Tumor size and body weight were recorded every second or third day. Mouse survival was analyzed using the Kaplan–Meier method.
(§2) Single agent or combination treatment was designed as follows: TP‐16 (37.5, 75, 150 mg/kg) or celecoxib (100 mg/kg) was formulated in 0.5% carboxymethylcellulose sodium (CMC‐Na, Sangon Biotech, Shanghai, China) and administered via oral gavage daily. In vivo anti‐PD1 antibody (clone RMP1‐14, BioXCell, West Lebanon, NH, USA) and rat IgG2a isotype control (clone 2A3, BioXCell) were diluted in sterile PBS and administered intraperitoneally at a dose of 50 μg twice weekly.

[7] = system: Pan02 tumors; experiment: Pan02 pancreatic cancer model in C57BL/6 mice; assay type: in vivo, mouse; conditions: Pan02, C57BL/6 mice, 75 mg/kg p.o. daily
Experimental: as §1, §2

[8] = system: AOM/DSS-induced colorectal tumors; experiment: AOM/DSS-induced colorectal cancer model; assay type: in vivo, mouse; conditions: AOM/DSS mice, TP-16 75 mg/kg po daily, anti-PD-1 50 μg ip twice weekly, 5 weeks
Experimental: ; i.p.; Sigma‐Aldrich, St. Louis, MO, USA). After 1 week of rest, mice were provided with 2.5% DSS (MP Biomedicals, Santa Ana, CA, USA) in their drinking water for 5 days, followed by DSS‐free water for two weeks. The DSS treatment cycle was carried out three times in total, and mice were randomized into four groups and subjected to the therapeutic protocol. Mice were sacrificed at 37 days after the indicated treatments.
as §2

[9] = molecular target: AODRA1 (Homo sapiens, UniProt P30542); experiment: LANCE Ultra cAMP assay
Chain of AODRA1 (P30542 whole entry): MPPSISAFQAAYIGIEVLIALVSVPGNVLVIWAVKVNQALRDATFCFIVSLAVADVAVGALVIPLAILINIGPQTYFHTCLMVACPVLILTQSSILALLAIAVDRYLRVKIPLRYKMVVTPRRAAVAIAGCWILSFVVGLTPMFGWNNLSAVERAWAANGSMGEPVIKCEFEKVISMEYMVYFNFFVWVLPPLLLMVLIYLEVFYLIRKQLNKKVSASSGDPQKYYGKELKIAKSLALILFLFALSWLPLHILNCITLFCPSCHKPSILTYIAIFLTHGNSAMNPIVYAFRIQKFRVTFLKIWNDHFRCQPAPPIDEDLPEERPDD

[10] = molecular target: ADORA2B (Homo sapiens, UniProt P29275); experiment: LANCE Ultra cAMP assay
Chain of ADORA2B (P29275 whole entry, species assumed): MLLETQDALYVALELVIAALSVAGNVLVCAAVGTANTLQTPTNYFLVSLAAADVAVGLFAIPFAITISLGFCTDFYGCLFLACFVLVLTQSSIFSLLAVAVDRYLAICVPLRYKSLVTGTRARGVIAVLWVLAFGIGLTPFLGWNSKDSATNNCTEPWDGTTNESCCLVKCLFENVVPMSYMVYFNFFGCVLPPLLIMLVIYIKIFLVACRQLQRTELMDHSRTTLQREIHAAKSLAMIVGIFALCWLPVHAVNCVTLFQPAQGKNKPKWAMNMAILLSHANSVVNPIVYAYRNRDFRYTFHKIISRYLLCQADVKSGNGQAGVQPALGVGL

T1 sequence (P43116 whole entry): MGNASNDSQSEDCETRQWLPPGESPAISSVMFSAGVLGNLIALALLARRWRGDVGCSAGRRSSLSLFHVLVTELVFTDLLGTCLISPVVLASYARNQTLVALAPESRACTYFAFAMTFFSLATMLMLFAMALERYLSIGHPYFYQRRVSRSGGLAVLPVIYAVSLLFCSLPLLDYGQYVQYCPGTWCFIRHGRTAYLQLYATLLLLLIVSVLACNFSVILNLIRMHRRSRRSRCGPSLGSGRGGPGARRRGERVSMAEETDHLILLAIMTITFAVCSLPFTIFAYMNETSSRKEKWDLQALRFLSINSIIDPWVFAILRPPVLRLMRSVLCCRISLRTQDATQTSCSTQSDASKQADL

`C[C@H](NC(=O)c1c(Cc2ccc(F)cc2)sc2c1CCOC2)c1ccc(C(=O)O)cc1` [TP-16] was tested, and the pIC50 [1] was less than 5.00, the pIC50 [2] was less than 5.00 and the pIC50 [3] was less than 5.00. The pIC50 [4] was less than 5.00, the pIC50 [5] was less than 5.00 and the “%TGI (tumor growth inhibition)” value ([6]; CT26, BALB/c mice, 37.5 mg/kg p.o. daily, 16 days) was 26.2%. For the same compound, the “%TGI (tumor growth inhibition)” value ([6]; CT26, BALB/c mice, 75 mg/kg p.o. daily, 16 days) was 47.4%, the “%TGI (tumor growth inhibition)” value ([6]; CT26, BALB/c mice, 150 mg/kg p.o. daily, 16 days) was 47.6% and the “anti-tumor efficacy compared with E7046” value ([6]; CT26, BALB/c mice, both 150 mg/kg) was “greater efficacy than E7046”. For the same compound, the median survival time ([6]; CT26, BALB/c, TP-16 75 mg/kg p.o. daily, anti-PD-1 50 μg i.p. twice weekly, 2 weeks, control 16 days) was 30 days, the “anti-tumor efficacy compared with celecoxib” value ([6]; CT26, TP-16 75 mg/kg vs celecoxib 100 mg/kg, p.o. daily, 16 days) was “superior” and the “%TGI” value [7] was 44.0%. The “tumor number (multiplicity) and size” value [8] was “moderately reduced”, the pIC50 [9] was less than 5.00 and the pIC50 [10] was less than 5.00.
